Measured values: patent publication US4442044A, “Process for preparing monoesters and diesters of N-alkyl substituted amino methyl phosphonic acid” (priority 1983, dated 1984)

Legend:
Assay type in all cases: in vivo
Sorghum = experiment: post-emergent herbicidal activity, greenhouse; settings: Table II, 4 WAT
How it was run: (§1)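 Seeds or propagules sown in compacted top soil, grown 2–3 weeks in greenhouse, then sprayed with compound solution/suspension containing ~0.4% emulsifier at tabulated rates. Injury scored visually versus untreated controls at ~2 and 4 weeks after treatment, expressed as a herbicidal activity index.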

Hemp Sesbania = experiment: post-emergent herbicidal activity, greenhouse; settings: Table II, 4 WAT
How it was run: as §1

Quackgrass [1] = experiment: post-emergent herbicidal activity, greenhouse; settings: Table I, 4 WAT
How it was run: as §1

Yellow Nutsedge [2] = experiment: post-emergent herbicidal activity, greenhouse; settings: Table I, 4 WAT
How it was run: as §1

Sugar Beet = experiment: post-emergent herbicidal activity, greenhouse; settings: Table II, 4 WAT
How it was run: as §1

Velvetleaf [3] = experiment: post-emergent herbicidal activity, greenhouse; settings: 4 WAT
How it was run: as §1

Wild Buckwheat = experiment: post-emergent herbicidal activity, greenhouse; settings: Table II, 4 WAT
How it was run: as §1

Lambsquarters [4] = experiment: post-emergent herbicidal activity, greenhouse; settings: 4 WAT
How it was run: as §1

Wheat = experiment: post-emergent herbicidal activity, greenhouse; settings: Table II, 4 WAT
How it was run: as §1

Soybean = experiment: post-emergent herbicidal activity, greenhouse; settings: Table II, 4 WAT
How it was run: as §1

Rice = experiment: post-emergent herbicidal activity, greenhouse; settings: Table II, 4 WAT
How it was run: as §1

Morningglory [5] = experiment: post-emergent herbicidal activity, greenhouse; settings: 4 WAT
How it was run: as §1

Panicum Spp = experiment: post-emergent herbicidal activity, greenhouse; settings: Table II, 4 WAT
How it was run: as §1

Smartweed [6] = experiment: post-emergent herbicidal activity, greenhouse; settings: 4 WAT
How it was run: as §1

Downy Brome [7] = experiment: post-emergent herbicidal activity, greenhouse; settings: 4 WAT
How it was run: as §1

Cocklebur [8] = experiment: post-emergent herbicidal activity, greenhouse; settings: 4 WAT
How it was run: as §1

Johnsongrass [9] = experiment: post-emergent herbicidal activity, greenhouse; settings: Table I, 4 WAT
How it was run: as §1

Barnyardgrass [10] = experiment: post-emergent herbicidal activity, greenhouse; settings: 4 WAT
How it was run: as §1

Quackgrass [11] = experiment: pre-emergent herbicidal activity, soil incorporation; settings: Table III, 2 WAT, 11.2 kg/h
From the text: (§2) A good grade of top soil is placed in aluminum pans and compacted to a depth of 0.95 to 1.27 cm. from the top of each pan. A predetermined number of seeds or vegetative propagules of each of several plant species are placed on top of the soil in each pan and then pressed down. Herbicidal compositions prepared as in the previous example are applied by admixture with or incorporation in the top layer of soil.
(§3) In this method, the soil required to cover the seeds and propagules is weighed and admixed with a herbicidal composition containing a known amount of the active ingredient (compound of this invention). The pans are then filled with the admixture and leveled. Watering is carried out by permitting the soil in the pans to absorb moisture through apertures in the pan bottoms. The seed and propagule containing pans are placed on a wet sand bench and maintained for approximately two weeks under ordinary conditions of sunlight and watering. At the end of this period, the number of emerged plants of each species is noted and compared to an untreated control.
(§4) The pre-emergent herbicidal activity index used below is based upon average percent control of each species as follows: […]

Yellow Nutsedge [12] = experiment: as above; settings: Table III, 2 WAT, 11.2 kg/h
From the text: as §2, §3, §4

Velvetleaf [13] = experiment: as above; settings: Table III, 2 WAT, 11.2 kg/h
From the text: as §2, §3, §4

Lambsquarters [14] = experiment: as above; settings: Table III, 2 WAT, 11.2 kg/h
From the text: as §2, §3, §4

Morningglory [15] = experiment: as above; settings: Table III, 2 WAT, 11.2 kg/h
From the text: as §2, §3, §4

Smartweed [16] = experiment: as above; settings: Table III, 2 WAT, 11.2 kg/h
From the text: as §2, §3, §4

Downy Brome [17] = experiment: as above; settings: Table III, 2 WAT, 11.2 kg/h
From the text: as §2, §3, §4

Cocklebur [18] = experiment: as above; settings: Table III, 2 WAT, 11.2 kg/h
From the text: as §2, §3, §4

Johnsongrass [19] = experiment: as above; settings: Table III, 2 WAT, 11.2 kg/h
From the text: as §2, §3, §4

Barnyardgrass [20] = experiment: as above; settings: Table III, 2 WAT, 11.2 kg/h
From the text: as §2, §3, §4

Compound: CCOCCOC(=O)CNCP(=O)(O)OC(C)C#N (stereo not drawn) [Example 9, glycine, N-[[(1-cyanoethoxy)hydroxyphosphinyl]-methyl],2-ethoxyethyl ester]
- post-emergent herbicidal activity index (Sorghum; 0.28 kg/h): 2 (50-74% control)
- post-emergent herbicidal activity index (Sorghum; 1.12 kg/h): 1 (25-49% control)
- post-emergent herbicidal activity index (Sorghum; 5.6 kg/h): 3 (75-99% control)
- post-emergent herbicidal activity index (Hemp Sesbania; 0.28 kg/h): 1 (25-49% control)
- post-emergent herbicidal activity index (Hemp Sesbania; 1.12 kg/h): 1 (25-49% control)
- post-emergent herbicidal activity index (Hemp Sesbania; 5.6 kg/h): 1 (25-49% control)
- post-emergent herbicidal activity index (Quackgrass [1]; 5.6 kg/h): 4 (100% control)
- post-emergent herbicidal activity index (Quackgrass [1]; 11.2 kg/h): 4 (100% control)
- post-emergent herbicidal activity index (Yellow Nutsedge [2]; 5.6 kg/h): 1 (25-49% control)
- post-emergent herbicidal activity index (Yellow Nutsedge [2]; 11.2 kg/h): 3 (75-99% control)
- post-emergent herbicidal activity index (Sugar Beet; 0.28 kg/h): 3 (75-99% control)
- post-emergent herbicidal activity index (Sugar Beet; 1.12 kg/h): 2 (50-74% control)
- post-emergent herbicidal activity index (Sugar Beet; 5.6 kg/h): 4 (100% control)
- post-emergent herbicidal activity index (Velvetleaf [3]; Table I, 5.6 kg/h): 3 (75-99% control)
- post-emergent herbicidal activity index (Velvetleaf [3]; Table I, 11.2 kg/h): 4 (100% control)
- post-emergent herbicidal activity index (Velvetleaf [3]; Table II, 0.28 kg/h): 1 (25-49% control)
- post-emergent herbicidal activity index (Velvetleaf [3]; Table II, 1.12 kg/h): 3 (75-99% control)
- post-emergent herbicidal activity index (Velvetleaf [3]; Table II, 5.6 kg/h): 3 (75-99% control)
- post-emergent herbicidal activity index (Wild Buckwheat; 0.28 kg/h): 1 (25-49% control)
- post-emergent herbicidal activity index (Wild Buckwheat; 1.12 kg/h): 0 (0-24% control)
- post-emergent herbicidal activity index (Wild Buckwheat; 5.6 kg/h): 3 (75-99% control)
- post-emergent herbicidal activity index (Lambsquarters [4]; Table I, 5.6 kg/h): 4 (100% control)
- post-emergent herbicidal activity index (Lambsquarters [4]; Table I, 11.2 kg/h): 4 (100% control)
- post-emergent herbicidal activity index (Lambsquarters [4]; Table II, 0.28 kg/h): 4 (100% control)
- post-emergent herbicidal activity index (Lambsquarters [4]; Table II, 1.12 kg/h): 4 (100% control)
- post-emergent herbicidal activity index (Lambsquarters [4]; Table II, 5.6 kg/h): 4 (100% control)
- post-emergent herbicidal activity index (Wheat; 0.28 kg/h): 2 (50-74% control)
- post-emergent herbicidal activity index (Wheat; 1.12 kg/h): 3 (75-99% control)
- post-emergent herbicidal activity index (Wheat; 5.6 kg/h): 3 (75-99% control)
- post-emergent herbicidal activity index (Soybean; 0.28 kg/h): 1 (25-49% control)
- post-emergent herbicidal activity index (Soybean; 1.12 kg/h): 3 (75-99% control)
- post-emergent herbicidal activity index (Soybean; 5.6 kg/h): 4 (100% control)
- post-emergent herbicidal activity index (Rice; 0.28 kg/h): 1 (25-49% control)
- post-emergent herbicidal activity index (Rice; 1.12 kg/h): 2 (50-74% control)
- post-emergent herbicidal activity index (Rice; 5.6 kg/h): 3 (75-99% control)
- post-emergent herbicidal activity index (Morningglory [5]; Table I, 5.6 kg/h): 2 (50-74% control)
- post-emergent herbicidal activity index (Morningglory [5]; Table I, 11.2 kg/h): 3 (75-99% control)
- post-emergent herbicidal activity index (Morningglory [5]; Table II, 0.28 kg/h): 2 (50-74% control)
- post-emergent herbicidal activity index (Morningglory [5]; Table II, 1.12 kg/h): 2 (50-74% control)
- post-emergent herbicidal activity index (Morningglory [5]; Table II, 5.6 kg/h): 2 (50-74% control)
- post-emergent herbicidal activity index (Panicum Spp; 0.28 kg/h): 4 (100% control)
- post-emergent herbicidal activity index (Panicum Spp; 1.12 kg/h): 4 (100% control)
- post-emergent herbicidal activity index (Panicum Spp; 5.6 kg/h): 4 (100% control)
- post-emergent herbicidal activity index (Smartweed [6]; Table I, 5.6 kg/h): 2 (50-74% control)
- post-emergent herbicidal activity index (Smartweed [6]; Table I, 11.2 kg/h): 3 (75-99% control)
- post-emergent herbicidal activity index (Smartweed [6]; Table II, 0.28 kg/h): 2 (50-74% control)
- post-emergent herbicidal activity index (Smartweed [6]; Table II, 1.12 kg/h): 2 (50-74% control)
- post-emergent herbicidal activity index (Smartweed [6]; Table II, 5.6 kg/h): 1 (25-49% control)
- post-emergent herbicidal activity index (Downy Brome [7]; Table I, 5.6 kg/h): 2 (50-74% control)
- post-emergent herbicidal activity index (Downy Brome [7]; Table I, 11.2 kg/h): 3 (75-99% control)
- post-emergent herbicidal activity index (Downy Brome [7]; Table II, 0.28 kg/h): 2 (50-74% control)
- post-emergent herbicidal activity index (Downy Brome [7]; Table II, 1.12 kg/h): 1 (25-49% control)
- post-emergent herbicidal activity index (Downy Brome [7]; Table II, 5.6 kg/h): 4 (100% control)
- post-emergent herbicidal activity index (Cocklebur [8]; Table I, 5.6 kg/h): 3 (75-99% control)
- post-emergent herbicidal activity index (Cocklebur [8]; Table I, 11.2 kg/h): 4 (100% control)
- post-emergent herbicidal activity index (Cocklebur [8]; Table II, 0.28 kg/h): 1 (25-49% control)
- post-emergent herbicidal activity index (Cocklebur [8]; Table II, 1.12 kg/h): 1 (25-49% control)
- post-emergent herbicidal activity index (Cocklebur [8]; Table II, 5.6 kg/h): 4 (100% control)
- post-emergent herbicidal activity index (Johnsongrass [9]; 5.6 kg/h): 4 (100% control)
- post-emergent herbicidal activity index (Johnsongrass [9]; 11.2 kg/h): 4 (100% control)
- post-emergent herbicidal activity index (Barnyardgrass [10]; Table I, 5.6 kg/h): 3 (75-99% control)
- post-emergent herbicidal activity index (Barnyardgrass [10]; Table I, 11.2 kg/h): 3 (75-99% control)
- post-emergent herbicidal activity index (Barnyardgrass [10]; Table II, 0.28 kg/h): 2 (50-74% control)
- post-emergent herbicidal activity index (Barnyardgrass [10]; Table II, 1.12 kg/h): 3 (75-99% control)
- post-emergent herbicidal activity index (Barnyardgrass [10]; Table II, 5.6 kg/h): 3 (75-99% control)
- pre-emergent herbicidal activity index (Quackgrass [11]): 0 (1-24% control)
- pre-emergent herbicidal activity index (Yellow Nutsedge [12]): 1 (25-49% control)
- pre-emergent herbicidal activity index (Velvetleaf [13]): 0 (1-24% control)
- pre-emergent herbicidal activity index (Lambsquarters [14]): 0 (1-24% control)
- pre-emergent herbicidal activity index (Morningglory [15]): 0 (1-24% control)
- pre-emergent herbicidal activity index (Smartweed [16]): 0 (1-24% control)
- pre-emergent herbicidal activity index (Downy Brome [17]): 0 (1-24% control)
- pre-emergent herbicidal activity index (Cocklebur [18]): 0 (1-24% control)
- pre-emergent herbicidal activity index (Johnsongrass [19]): 0 (1-24% control)
- pre-emergent herbicidal activity index (Barnyardgrass [20]): 0 (1-24% control)
